One molecule from BindingDB's records for doi:10.7270/Q2736T2X (n/a, 1995) can be followed below.

In general, IC50 refers to the concentration needed to halve the response being measured.

Test [1] addresses Muscarinic acetylcholine receptor M1/M2/M3/M4/M5. As to the kind of experiment: Binding affinity towards muscarinic receptor using [3H]quinuclidinyl benzilate (QNB) to label antagonist sites in membrane preparations from rat neocortex.
The target is the same in test [2]. The test is described as follows: Binding affinity towards muscarinic receptor using [3H]cis-methyldioxolane (CMD) to label agonist sites in membrane preparations from rat neocortex.

For `O=[N+]([O-])c1cccc(C#CCO[N-][C+]2CN3CCC2C3)c1` (configuration not stated) [1-Aza-bicyclo[2.2.1]heptan-3-one O-[3-(3-nitro-phenyl)-prop-2-ynyl]-oxime], the values for the IC50 in test [1] and in test [2] were 6.4 µM and 28 nM, respectively.
